The values below come from article PMC4411481, “Cyclic nucleotide binding and structural changes in the isolated GAF domain of Anabaena adenylyl cyclase, CyaB2” (PeerJ, 2015).

The test system of assay [1] is HEK293T cells. The experiment in a line: Intracellular cNMP estimation by radioimmunoassay. The class given is cell-based, Human. Particulars: 100 µM forskolin, 5 min. On the procedure: Intracellular levels of cyclic nucleotide monophosphates (cNMP) were measured from the cells used for BRET measurements, or […] transfected and treated cells. Cells were lysed in 0.1 N HCl and cNMP was measured by radioimmunoassay as described earlier ([Bakre, […], 2000]).

The subject of assay [2] is HEK293T cells expressing the GAFb sensor. The experiment in a line: Cellular BRET assay, GAFb sensor. The class given is cell-based, Human. Particulars: 100 µM; forskolin 5 min, SNP 2 min, 37 °C.
Assay [3] addresses T1, tandem GAFab domains of CyaB2 (residues S77 to L431, GST fusion) (Nostoc sp. PCC 7120 (Anabaena sp. PCC 7120), UniProt P94182).
T1 sequence (P94182 77-431): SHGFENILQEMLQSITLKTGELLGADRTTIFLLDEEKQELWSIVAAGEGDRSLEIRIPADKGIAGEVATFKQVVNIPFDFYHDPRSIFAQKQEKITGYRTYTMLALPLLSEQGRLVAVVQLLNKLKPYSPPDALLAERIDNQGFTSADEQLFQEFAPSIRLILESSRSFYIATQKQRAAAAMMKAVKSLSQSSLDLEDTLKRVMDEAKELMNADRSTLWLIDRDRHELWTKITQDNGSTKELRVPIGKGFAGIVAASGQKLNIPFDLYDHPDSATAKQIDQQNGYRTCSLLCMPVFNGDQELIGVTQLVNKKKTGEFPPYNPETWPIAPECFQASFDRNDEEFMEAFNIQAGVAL
The experiment in a line: biochemical. The class given is binding.

In assay [4] the test system is tandem GAFab domains of CyaB2 (residues S77 to L431, GST fusion). The experiment in a line: biochemical. The class given is binding, Anabaena sp. PCC 7120. Particulars: tandem GAFab vs isolated GAFb.
In assay [5] the test system is GAFab sensor (GFP2-GAFab-Rluc). The experiment in a line: In vitro BRET assay, GAFab sensor. The class given is biochemical, Anabaena sp. PCC 7120. Conditions: cell lysate, 1 mM cNMP. In general terms: In BRET a luciferase serves as donor, and the signal depends on an acceptor being close.
Assay [6] deals with T293A mutant GAFb domain of CyaB2. The experiment in a line: Cyclic nucleotide binding assay, T293A mutant GAFb. The arrangement: species or system Anabaena sp. PCC 7120.
Assay [7] deals with T2, isolated GAFb domain of CyaB2 (residues Leu 270 to Leu 431, GST fusion) (Nostoc sp. PCC 7120 (Anabaena sp. PCC 7120), UniProt P94182).
T2 sequence (P94182 270-431): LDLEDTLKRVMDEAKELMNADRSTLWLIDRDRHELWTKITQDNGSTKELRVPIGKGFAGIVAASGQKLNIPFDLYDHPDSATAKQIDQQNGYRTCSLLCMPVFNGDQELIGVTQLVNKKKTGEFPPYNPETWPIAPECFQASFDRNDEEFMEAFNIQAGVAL
The experiment in a line: Cyclic nucleotide binding assay (3H-cAMP competition), GST-GAFb.

The target of assay [8] is T3, PDE5 GAFa(F163A) sensor (Homo sapiens, UniProt O76074, F205A).
T3 construct: We used the F163A mutant GAFa domain of PDE5; expressed in transfected cells; host or cells: HEK293T lysate
The experiment in a line: In vitro BRET assay, PDE5 GAFa(F163A) sensor. Conditions: cell lysate, 1 mM cNMP, 37 °C 10 min. The class given is biochemical.

Assay [9] concerns NterGAFab sensor (GFP2-NterGAFab-Rluc). The experiment in a line: In vitro BRET assay, NterGAFab sensor. The class given is biochemical, Anabaena sp. PCC 7120. Particulars: cell lysate, 1 mM cNMP.
Assay [10] has as its system GAFb sensor (GFP2-GAFb-Rluc). The experiment in a line: In vitro BRET assay, GAFb sensor. The class given is biochemical, Anabaena sp. PCC 7120. Particulars: cell lysate, 1 mM cNMP, 37 °C 10 min.
In assay [11] the test system is I308A mutant GAFb domain of CyaB2. The class given is binding, Anabaena sp. PCC 7120.
Assay [12] deals with CyaB1-CyaB2 fusion protein. Particulars: read-out: EC50, cAMP-mediated activation of a related adenylyl cyclase domain; ref Bruder et al., 2005; cited from earlier work.

Like-named read-outs stand apart in the source and are kept apart here.

T3 sequence (O76074 148-315 F205A): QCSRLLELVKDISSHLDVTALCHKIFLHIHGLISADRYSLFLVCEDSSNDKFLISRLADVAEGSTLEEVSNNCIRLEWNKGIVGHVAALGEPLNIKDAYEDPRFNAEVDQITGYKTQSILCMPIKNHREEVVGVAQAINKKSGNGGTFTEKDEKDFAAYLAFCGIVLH

As to `C=C[C@@]1(C)CC(=O)[C@]2(O)[C@@]3(C)[C@@H](O)CCC(C)(C)[C@@H]3[C@H](O)[C@H](OC(C)=O)[C@@]2(C)O1` [forskolin], the “intracellular levels of cAMP” value in assay [1] is recorded as “increased intracellular levels”. Moreover, the “change in BRET ratios in live cells” value in assay [2] was “no significant changes”.

On to `Nc1nc2c(ncn2[C@@H]2O[C@@H]3COP(=O)(O)O[C@H]3[C@H]2O)c(=O)[nH]1` [cGMP, guanosine 3′, 5′—cyclic monophosphate], for which the half-inhibitory concentration (IC50) in assay [3] (tandem GAFab, ∼1 nM 3H-cAMP, read-out: IC50, competition with 3H-cAMP binding) worked out at 2650 µM; in assay [7] (isolated GAFb, ∼1 nM 3H-cAMP), 7.6 ± 1.9 µM. Besides, the “fold lower affinity compared to the isolated GAFb domain” value in [4] worked out at 348 fold. Besides, the “change in BRET” value in assay [5] and in assay [9] was “did not result in a significant alteration” each time. The entries for the “change in affinity vs wild type GAFb” value in assay [6] and in assay [11] were “reduction in the affinity” and “remained unaltered”, respectively. Besides, the “change in BRET ratio” value was “large increase in the BRET ratio” in assay [8] and “no change in the BRET ratio” in assay [10].

For the compound `Nc1ncnc2c1ncn2[C@@H]1O[C@@H]2COP(=O)(O)O[C@H]2[C@H]1O` [cAMP, adenosine 3′, 5′—cyclic monophosphate], in assay [12], the EC50 is about 1.3 µM. Further, in [3], the IC50 came to 0.05 ± 0.02 µM. The “fold higher affinity than the isolated GAFb domain” value in [4] amounted to 16 fold. Besides, the “change in BRET” value in assay [5] and in [9] was “did not result in a significant alteration” in each case. Moreover, the “change in affinity vs wild type GAFb” value is given as “no change in the affinity” in assay [6] and “significant reduction in the affinity” in [11]. Binding in assay [7] was put at a Kd of 0.8 ± 0.2 µM. Also, the figures for the “change in BRET ratio” value in assay [8] and in assay [10] were “large increase in the BRET ratio” and “no change in the BRET ratio”, respectively.

A word on the IC50: it is the point on the concentration scale where inhibition reaches its midpoint. A word on the EC50: it is the concentration at which the effect is half-maximal. Broadly, the Kd is the constant that tells how readily two partners part at equilibrium.
